Assays:
[1] = target: T1, Vasoactive intestinal polypeptide receptor 1 (Homo sapiens, UniProt P32241); type: cell membranes, Membrane; conditions: ht-29; note: in other assays of this panel Not Active means under 50% inhibition at 10 µM
T1 sequence (P32241 whole entry): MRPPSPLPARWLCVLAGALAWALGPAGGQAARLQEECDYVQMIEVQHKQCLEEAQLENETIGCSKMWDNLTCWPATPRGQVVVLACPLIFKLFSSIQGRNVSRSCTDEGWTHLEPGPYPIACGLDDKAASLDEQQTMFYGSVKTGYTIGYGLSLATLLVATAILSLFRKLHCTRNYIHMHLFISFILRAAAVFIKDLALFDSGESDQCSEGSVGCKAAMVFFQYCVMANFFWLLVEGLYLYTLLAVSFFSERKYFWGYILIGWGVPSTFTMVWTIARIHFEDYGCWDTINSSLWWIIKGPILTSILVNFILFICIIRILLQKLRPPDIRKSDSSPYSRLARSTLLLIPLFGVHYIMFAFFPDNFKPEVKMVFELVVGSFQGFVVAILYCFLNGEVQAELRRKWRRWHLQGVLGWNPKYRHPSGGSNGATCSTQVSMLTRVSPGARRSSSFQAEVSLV

[2] = target: Carbonic anhydrase 2 (Homo sapiens, UniProt P00918); experiment: DRUGMATRIX: Carbonic Anhydrase II enzyme inhibition (substrate: 4-Nitrophenyl acetate (4-NPA)); type: tissue-based, Erythrocyte; conditions: erythrocyte; Not Active = under 50% inhibition at 10 µM
[3] = target: Sodium-dependent dopamine transporter (Homo sapiens, UniProt Q01959); experiment: DRUGMATRIX: Dopamine Transporter radioligand binding (ligand: [125I] RTI-55); type: cell membranes, CHO-K1, Membrane; conditions: Not Active = under 50% inhibition at 10 µM
Chain of Sodium-dependent dopamine transporter (Q01959 whole entry): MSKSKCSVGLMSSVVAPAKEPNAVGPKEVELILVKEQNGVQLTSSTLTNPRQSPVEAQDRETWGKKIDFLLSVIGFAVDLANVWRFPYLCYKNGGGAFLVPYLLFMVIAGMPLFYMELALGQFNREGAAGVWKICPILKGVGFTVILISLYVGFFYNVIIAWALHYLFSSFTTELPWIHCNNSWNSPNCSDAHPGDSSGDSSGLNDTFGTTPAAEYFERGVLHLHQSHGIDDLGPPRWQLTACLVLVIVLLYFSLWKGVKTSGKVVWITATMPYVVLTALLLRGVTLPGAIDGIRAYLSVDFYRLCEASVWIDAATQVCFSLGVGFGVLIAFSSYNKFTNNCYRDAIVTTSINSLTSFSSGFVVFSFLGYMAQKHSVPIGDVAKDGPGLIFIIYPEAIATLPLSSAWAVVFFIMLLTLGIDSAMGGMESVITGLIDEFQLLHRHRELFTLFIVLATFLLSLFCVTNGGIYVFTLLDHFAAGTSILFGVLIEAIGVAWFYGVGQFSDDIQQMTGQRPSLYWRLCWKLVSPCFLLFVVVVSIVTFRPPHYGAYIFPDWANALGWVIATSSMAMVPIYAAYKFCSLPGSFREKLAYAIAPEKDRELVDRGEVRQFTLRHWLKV

[4] = DRUGMATRIX: GABAA, Flunitrazepam, Central radioligand binding (ligand: [3H] Flunitrazepam); type: cell membranes, Rattus norvegicus, Wistar, Brain, Membrane; conditions: Not Active = under 50% inhibition at 10 µM
[5] = target: Protein kinase C alpha type (Homo sapiens, UniProt P17252); type: cell-based; conditions: sf9;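 note: inhibition of PKCalpha kinase activity measured in an enzyme assay with histone as the phosphorylation substrate; in other assays of this panel Not Active means under 50% inhibition at 10 µM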
[6] = target: Acetylcholinesterase (Homo sapiens, UniProt P22303); experiment: DRUGMATRIX: Acetylcholinesterase enzyme inhibition (substrate: acetylthiocholine); type: cell-based, HEK293; conditions: hek293; Not Active = under 50% inhibition at 10 µM
Chain of Acetylcholinesterase (P22303 whole entry): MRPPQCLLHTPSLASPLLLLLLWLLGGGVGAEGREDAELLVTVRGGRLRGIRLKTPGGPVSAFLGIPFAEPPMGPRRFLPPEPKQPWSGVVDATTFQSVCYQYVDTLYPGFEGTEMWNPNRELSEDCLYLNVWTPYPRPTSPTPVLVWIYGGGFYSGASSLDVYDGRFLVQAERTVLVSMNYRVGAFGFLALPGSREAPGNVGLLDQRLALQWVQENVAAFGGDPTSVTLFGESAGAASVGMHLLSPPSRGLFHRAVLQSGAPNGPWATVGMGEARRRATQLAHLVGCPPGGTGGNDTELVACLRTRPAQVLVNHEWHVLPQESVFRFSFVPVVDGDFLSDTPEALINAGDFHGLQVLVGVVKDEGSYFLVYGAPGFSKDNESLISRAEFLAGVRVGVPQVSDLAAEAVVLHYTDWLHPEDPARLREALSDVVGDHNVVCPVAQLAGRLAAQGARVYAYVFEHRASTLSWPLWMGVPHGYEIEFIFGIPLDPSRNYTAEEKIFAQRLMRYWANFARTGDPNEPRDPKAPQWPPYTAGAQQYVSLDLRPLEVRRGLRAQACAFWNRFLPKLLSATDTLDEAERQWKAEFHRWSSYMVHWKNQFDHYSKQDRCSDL

[7] = target: Cytochrome P450 2E1 (Homo sapiens, UniProt P05181); conditions: bti-tn-5b1-4; note: in other assays of this panel Not Active means under 50% inhibition at 10 µM
Chain of Cytochrome P450 2E1 (P05181 whole entry): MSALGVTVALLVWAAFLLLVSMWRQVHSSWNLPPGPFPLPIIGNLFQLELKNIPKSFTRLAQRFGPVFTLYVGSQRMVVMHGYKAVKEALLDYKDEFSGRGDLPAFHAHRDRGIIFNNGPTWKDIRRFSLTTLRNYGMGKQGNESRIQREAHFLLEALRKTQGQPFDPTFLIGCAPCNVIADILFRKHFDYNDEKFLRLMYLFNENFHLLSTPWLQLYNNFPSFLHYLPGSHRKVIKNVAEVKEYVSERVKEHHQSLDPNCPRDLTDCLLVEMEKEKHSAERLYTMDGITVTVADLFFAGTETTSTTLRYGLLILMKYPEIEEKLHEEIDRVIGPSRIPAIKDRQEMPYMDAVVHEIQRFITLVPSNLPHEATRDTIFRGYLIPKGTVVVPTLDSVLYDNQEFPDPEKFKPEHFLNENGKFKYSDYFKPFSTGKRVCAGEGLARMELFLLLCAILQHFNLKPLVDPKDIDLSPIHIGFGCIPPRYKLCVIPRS

Compound	IC50 [1]	IC50 [2]	IC50 ([3]; cho-k1)	IC50 [4]	Ki [4]	IC50 [5]	IC50 [6]	IC50 [7]	Ki [7]	IC50 ([3]; read-out: IC50) [µM]	Ki ([3]; read-out: Ki) [µM]	Ki [1]	Ki [2]	Ki ([3]; cho-k1)	Ki [5]	Ki [6]
CC(=O)OCC(CCn1cnc2cnc(N)nc21)COC(C)=O [FAMCICLOVIR]	Not Active	Not Active	Not Active	Not Active	Not Active	Not Active	Not Active	Not Active	Not Active	–	–	–	–	–	–	–
O=C(c1ccccc1Cl)N1CCC(Cc2ccccc2)CC1	Not Active	Not Active	Not Active	Not Active	Not Active	Not Active	Not Active	Not Active	Not Active	–	–	–	–	–	–	–
Cc1c(F)c(N2CCNC(C)C2)cc2c1c(=O)c(C(=O)O)cn2C1CC1 (stereo not drawn) [GREPAFLOXACIN]	Not Active	Not Active	Not Active	Not Active	Not Active	Not Active	Not Active	Not Active	Not Active	–	–	–	–	–	–	–
CC(C(=O)O)c1ccc(-c2ccccc2)c(F)c1 (stereo not drawn) [FLURBIPROFEN]	Not Active	Not Active	Not Active	Not Active	Not Active	Not Active	Not Active	Not Active	Not Active	–	–	–	–	–	–	–
COC(=O)c1ccccc1O [METHYL SALICYLATE]	Not Active	Not Active	Not Active	Not Active	Not Active	Not Active	Not Active	Not Active	Not Active	–	–	–	–	–	–	–
O=C(O)c1cccnc1 [NIACIN]	Not Active	Not Active	Not Active	Not Active	Not Active	Not Active	Not Active	Not Active	Not Active	–	–	–	–	–	–	–
CC[C@H](C)C(=O)O[C@H]1C[C@@H](C)C=C2C=C[C@H](C)[C@H](CC[C@@H]3C[C@@H](O)CC(=O)O3)[C@H]21 [LOVASTATIN]	Not Active	Not Active	–	Not Active	Not Active	Not Active	Not Active	Not Active	Not Active	10.1	8.03	–	–	–	–	–
COBALT(II) ACETYLACETONATE	Not Active	Not Active	Not Active	Not Active	Not Active	Not Active	Not Active	Not Active	Not Active	–	–	Not Active	Not Active	Not Active	Not Active	Not Active
CN(C(=O)CCCOc1ccc2[nH]c(=O)ccc2c1)C1CCCCC1 [CILOSTAMIDE]	Not Active	Not Active	Not Active	Not Active	Not Active	Not Active	Not Active	Not Active	Not Active	–	–	–	–	–	–	–
INSULIN HUMAN	Not Active	Not Active	Not Active	Not Active	Not Active	Not Active	Not Active	Not Active	Not Active	–	–	Not Active	Not Active	Not Active	Not Active	Not Active
CCOC(=O)[C@H](CCc1ccccc1)N[C@@H](C)C(=O)N1CCC[C@H]1C(=O)O	Not Active	Not Active	Not Active	Not Active	Not Active	Not Active	Not Active	Not Active	Not Active	–	–	–	–	–	–	–
O=C(O)c1cc(=O)c2c(OCC(O)COc3cccc4oc(C(=O)O)cc(=O)c34)cccc2o1 [CROMOLYN]	Not Active	Not Active	Not Active	Not Active	Not Active	Not Active	Not Active	Not Active	Not Active	–	–	–	–	–	–	–
Cc1cccc(Nc2cc(Cl)nc(SCC(=O)O)n2)c1C [PIRINIXIC ACID]	Not Active	Not Active	Not Active	Not Active	Not Active	Not Active	Not Active	Not Active	Not Active	–	–	–	–	–	–	–

Reference: ChEMBL document CHEMBL1909046, “DrugMatrix in vitro pharmacology data”
